Laboratory results reported in article PMC6366404, “4-(3-Nitrophenyl)thiazol-2-ylhydrazone derivatives as antioxidants and selective hMAO-B inhibitors: synthesis, biological activity and computational analysis” (Journal of Enzyme Inhibition and Medicinal Chemistry, 2019).

What was measured:
[1] = Phosphomolybdenum assay (PhosphoMo), total antioxidant activity; conditions: concentration at which absorbance was 0.5
[2] = biological target: T1, hMAO-B (Homo sapiens, UniProt P27338); assay: hMAO-B inhibition, IC50 determination (kynuramine fluorescence); format: biochemical
T1 sequence (P27338 1-520): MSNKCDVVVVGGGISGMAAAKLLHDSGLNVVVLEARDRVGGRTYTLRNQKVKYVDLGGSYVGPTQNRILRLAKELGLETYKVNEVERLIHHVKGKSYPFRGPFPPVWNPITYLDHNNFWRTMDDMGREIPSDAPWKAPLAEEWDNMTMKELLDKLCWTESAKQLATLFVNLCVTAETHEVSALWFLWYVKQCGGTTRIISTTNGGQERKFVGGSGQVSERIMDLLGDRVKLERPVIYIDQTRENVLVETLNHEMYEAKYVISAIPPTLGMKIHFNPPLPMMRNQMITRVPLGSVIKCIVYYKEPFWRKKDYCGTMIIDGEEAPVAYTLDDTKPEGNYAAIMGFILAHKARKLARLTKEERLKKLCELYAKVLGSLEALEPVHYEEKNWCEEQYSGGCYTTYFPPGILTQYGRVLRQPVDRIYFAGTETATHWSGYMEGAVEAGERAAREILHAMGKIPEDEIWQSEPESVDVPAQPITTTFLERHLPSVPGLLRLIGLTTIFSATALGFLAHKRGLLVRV
Protocol: The procedure for the measurement of IC50 values for the inhibition of MAO has been reported. The enzyme reactions were prepared to a volume of […] in potassium phosphate buffer at pH 7.4 (100 mM, made isotonic with KCl) and contained kynuramine (50 μM) and the test inhibitors (0.003–100 µM). Stock solutions of the test inhibitors were prepared in DMSO and added to the reactions to yield 4% DMSO. The enzyme reactions were initiated with the addition of recombinant hMAO-A (0.0075 mg protein/mL) or hMAO-B (0.015 mg protein/mL) and incubated for 20 min at 37 °C. At endpoint, the reactions were terminated with 80 µL sodium hydroxide (2N) and the fluorescence of 4-hydroxyquinoline, the oxidation product of kynuramine, was measured (λex = 310; λem = 400 nm)[33]. 4-Hydroxyquinoline was quantified with a calibration curve (0.047–1.56 μM) and the rate of 4-hydroxyquinoline formation was fitted to the one site competition model of the Prism 5 software package (GraphPad). From the resulting sigmoidal plots, the IC50 values were estimated. All enzyme reactions were carried out in triplicate and IC50 values are given as the mean ± standard deviation (SD).

[3] = FRAP (ferric reducing antioxidant power) assay
[4] = Cupric ion reducing activity (CUPRAC)
[5] = Metal chelating activity on ferrous ions; conditions: ferrozine
[6] = biological target: T1, hMAO-B; assay: Reversibility of MAO-B inhibition by dialysis; format: biochemical
Protocol: Stock solutions of the test compounds were prepared in DMSO and added to the incubations to yield 4% DMSO. The samples were dialyzed for 24 h at 4 °C in 80 ml of dialysis buffer using Slide-A-Lyzer® dialysis cassettes (Thermo Scientific) with a molecular weight cut-off of 10,000 and a sample volume capacity of 0.5–3 ml. The dialysis buffer was replaced at 3 and 7 h after the start of dialysis. Following dialysis, the dialysis samples were diluted twofold with the addition of kynuramine to yield a kynuramine concentration and inhibitor concentration of 50 µM and 2 × IC50, respectively. The reactions (500 µL) were incubated for 20 min at 37 °C and terminated with NaOH (400 μL, 2 N) and water (1000 µL). The fluorescence of 4-hydroxyquinoline in these samples was measured as described for the IC50 determination above. […] Undialysed mixtures of MAO-B and the test inhibitors were maintained at 4 °C for 24 h and diluted and assayed as above. All reactions were carried out in triplicate and the residual enzyme catalytic rates are expressed as mean ± SD.
Reversibility of MAO inhibition is an important factor to consider when evaluating the inhibition properties of potential inhibitors. Irreversible MAO inhibitors, particularly of the MAO-A isoform, are associated with dangerous adverse effects such as the cheese reaction, which occurs when irreversible MAO-A inhibitors are taken with tyramine-rich food[51]. […] The samples were diluted twofold and the residual MAO-B activity was measured. For reversible inhibition, dialysis is expected to reverse inhibition by the test inhibitors and restore enzyme activity to the level of the negative control. […] A final experiment consisted of incubations containing MAO-B and tested inhibitors which were not dialyzed, but maintained for 24 h.

For `CC(=NNc1nc(-c2cccc([N+](=O)[O-])c2)cs1)c1cccs1` [Compound 4, 1-(4-(3-Nitrophenyl)thiazol-2-yl)-2-(1-(thiophen-2-yl)ethylidene)hydrazine], the EC50 [1] was 1680 ± 90 µM, the IC50 [2] was 0.0018 µM and the “Selectivity index (SI) for the MAO-B isoform” value ([2]; ratio (IC50 hMAO-A)/(IC50 hMAO-B)) was 922. It also gave an EC50 [3] of 530 ± 20 µM, an EC50 [4] of 520 ± 20 µM and an IC50 [5] of over 5000 µM. The “Reversibility of MAO-B inhibition” value ([6]; dialysis 24 h) was “partially reversible”, the “Residual MAO-B activity, undialysed mixtures” value ([6]; inhibitor at 4 × IC50, not dialyzed, maintained 24 h) was 33% and the “Residual MAO-B activity after dialysis” value ([6]; inhibitor at 4 × IC50, preincubated 15 min, dialyzed 24 h, relative to negative control) was 61%.
